From patent publication US20120122730A1, “Methods for Quantitative Analyses of Kinase Inhibitor Selectivity Using Small Size Panels” (priority 2010, published 2012)

System: panel of 287 distinct human protein kinases, three lipid kinases, and 27 disease-relevant mutant variants
Assay: Weighted selectivity score from competition binding assays against a kinase panel
Details: Kd thresholds <100 nM, <1 μM, <3 μM weighted; panel of 317 assays; FIG. 7
Protocol: In one embodiment, a kinase subset may be determined by using a computational method that can extract knowledge from large amounts of data from known cancer drug designs and find a subset of kinases. A first step in determining a kinase subset involves the use of data from competition binding assays where kinase inhibitors are evaluated against a panel of protein kinases. For each interaction, a quantitative dissociation constant (Kd) is needed.
In one embodiment, a quantitative description, called a weighted selectivity score, is developed for assessing kinome-wide compound reactivities by suitably coarse-graining the binding-affinity vector. […] The weighted selectivity score (normalized or not) is an unbiased measure that enables quantitative comparisons between compounds and the detailed differentiation and analysis of interaction patterns. […]
To validate a method of the present disclosure, data from a previous competition binding assays was used wherein 38 kinase inhibitors were evaluated against a panel of 287 distinct human protein kinases, three lipid kinases, and 27 disease-relevant mutant variants. […] Each compound was screened against the panel of 317 assays at a single concentration of 10 μM to identify candidate kinase targets, and for each interaction observed in this primary screen a quantitative dissociation constant was determined.

Compound: COc1ccc(COc2ccc(Cc3cnc(N)nc3N)cc2OC)cc1 [GW-2580]
- weighted selectivity score (overall score): 3.5
